Test results from PubChem BioAssay (NCI).
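Each compound was tested at five concentrations against cells in 96-well plates for 48 hours. Here, GI50 denotes the concentration required for 50% inhibition of growth. At the TGI there is no net growth.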

Tests used:
Experiment in all cases: NCI tumour cell line growth inhibition, 48 h
SNB-78 CNS = tested on: SNB-78 CNS
HT29 colon = tested on: HT29 colon
HCC-2998 colon = tested on: HCC-2998 colon
LOX IMVI melanoma = tested on: LOX IMVI melanoma
DLD-1 colon = tested on: DLD-1 colon
XF 498 CNS = tested on: XF 498 CNS
SNB-19 CNS = tested on: SNB-19 CNS
NCI-H23 lung = tested on: NCI-H23 lung
786-0 renal = tested on: 786-0 renal
K-562 leukemia = tested on: K-562 leukemia
KM20L2 colon = tested on: KM20L2 colon
BT-549 breast = tested on: BT-549 breast
UACC-62 melanoma = tested on: UACC-62 melanoma
LXFL 529 NSCLC = tested on: LXFL 529 NSCLC
COLO 205 colon = tested on: COLO 205 colon
SK-MEL-2 melanoma = tested on: SK-MEL-2 melanoma
M19-MEL melanoma = tested on: M19-MEL melanoma
SK-MEL-28 melanoma = tested on: SK-MEL-28 melanoma
KM12 colon = tested on: KM12 colon
SF-268 CNS = tested on: SF-268 CNS
SNB-75 CNS = tested on: SNB-75 CNS
MCF7 breast = tested on: MCF7 breast
HS 578T breast = tested on: HS 578T breast
OVCAR-4 ovarian = tested on: OVCAR-4 ovarian
HL-60(TB) leukemia = tested on: HL-60(TB) leukemia
PC-3 prostate = tested on: PC-3 prostate
SN12C renal = tested on: SN12C renal
M14 melanoma = tested on: M14 melanoma
MDA-MB-231 breast = tested on: MDA-MB-231 breast
MOLT-4 leukemia = tested on: MOLT-4 leukemia
CCRF-CEM leukemia = tested on: CCRF-CEM leukemia
DMS 114 small cell lung = tested on: DMS 114 small cell lung
SF-539 CNS = tested on: SF-539 CNS
RXF 393 renal = tested on: RXF 393 renal
SF-295 CNS = tested on: SF-295 CNS
OVCAR-8 ovarian = tested on: OVCAR-8 ovarian
SW-620 colon = tested on: SW-620 colon
TK-10 renal = tested on: TK-10 renal
NCI-H522 lung = tested on: NCI-H522 lung
HCT-116 colon = tested on: HCT-116 colon
HOP-92 NSCLC = tested on: HOP-92 NSCLC
NCI-H226 lung = tested on: NCI-H226 lung
RXF-631 renal = tested on: RXF-631 renal
CAKI-1 renal = tested on: CAKI-1 renal
UACC-257 melanoma = tested on: UACC-257 melanoma
T-47D breast = tested on: T-47D breast
DU-145 prostate = tested on: DU-145 prostate
A498 renal = tested on: A498 renal
HCT-15 colon = tested on: HCT-15 colon
IGROV1 ovarian = tested on: IGROV1 ovarian
U251 CNS = tested on: U251 CNS
OVCAR-5 ovarian = tested on: OVCAR-5 ovarian
UO-31 renal = tested on: UO-31 renal
RPMI-8226 leukemia = tested on: RPMI-8226 leukemia
OVCAR-3 ovarian = tested on: OVCAR-3 ovarian
NCI/ADR-RES ovarian = tested on: NCI/ADR-RES ovarian
SR leukemia = tested on: SR leukemia
SK-OV-3 ovarian = tested on: SK-OV-3 ovarian
HOP-62 NSCLC = tested on: HOP-62 NSCLC
ACHN renal = tested on: ACHN renal
SK-MEL-5 melanoma = tested on: SK-MEL-5 melanoma
MDA-MB-435 = tested on: MDA-MB-435
NCI-H460 lung = tested on: NCI-H460 lung
A549 NSCLC = tested on: A549 NSCLC
EKVX NSCLC = tested on: EKVX NSCLC
DMS 273 small cell lung = tested on: DMS 273 small cell lung
MALME-3M melanoma = tested on: MALME-3M melanoma

Question: What does the source list for `CN(C)CCONC(=O)C12CC3CC(CC(C3)C1)C2`?
Answer: TGI (SNB-78 CNS): 69.2 µM; TGI (HT29 colon): > 100 µM; GI50 (HCC-2998 colon): > 100 µM; TGI (HCC-2998 colon): > 100 µM; TGI (LOX IMVI melanoma): > 100 µM; TGI (DLD-1 colon): > 100 µM; TGI (XF 498 CNS): > 100 µM; TGI (SNB-19 CNS): > 100 µM; TGI (NCI-H23 lung): > 100 µM; TGI (786-0 renal): > 100 µM; TGI (K-562 leukemia): > 100 µM; TGI (KM20L2 colon): > 100 µM; GI50 (BT-549 breast): > 100 µM; TGI (BT-549 breast): > 100 µM; TGI (UACC-62 melanoma): > 100 µM; TGI (LXFL 529 NSCLC): > 100 µM; TGI (COLO 205 colon): > 100 µM; TGI (SK-MEL-2 melanoma): > 100 µM; TGI (M19-MEL melanoma): > 100 µM; TGI (SK-MEL-28 melanoma): > 100 µM; TGI (KM12 colon): > 100 µM; TGI (SF-268 CNS): > 100 µM; TGI (SNB-75 CNS): > 100 µM; GI50 (MCF7 breast): > 100 µM; TGI (MCF7 breast): > 100 µM; GI50 (HS 578T breast): > 100 µM; TGI (HS 578T breast): > 100 µM; GI50 (OVCAR-4 ovarian): > 100 µM; TGI (OVCAR-4 ovarian): > 100 µM; TGI (HL-60(TB) leukemia): > 100000 nM; GI50 (PC-3 prostate): > 100 µM; TGI (PC-3 prostate): > 100 µM; TGI (SN12C renal): > 100 µM; TGI (M14 melanoma): > 100 µM; GI50 (MDA-MB-231 breast): > 100 µM; TGI (MDA-MB-231 breast): > 100 µM; TGI (MOLT-4 leukemia): > 100 µM; TGI (CCRF-CEM leukemia): > 100 µM; TGI (DMS 114 small cell lung): > 100000 nM; TGI (SF-539 CNS): > 100 µM; TGI (RXF 393 renal): > 100 µM; TGI (SF-295 CNS): > 100 µM; TGI (OVCAR-8 ovarian): > 100 µM; GI50 (SW-620 colon): > 100 µM; TGI (SW-620 colon): > 100 µM; TGI (TK-10 renal): > 100 µM; TGI (NCI-H522 lung): > 100000 nM; TGI (HCT-116 colon): > 100 µM; TGI (HOP-92 NSCLC): > 100 µM; TGI (NCI-H226 lung): > 100 µM; TGI (RXF-631 renal): > 100 µM; TGI (CAKI-1 renal): > 100 µM; TGI (UACC-257 melanoma): > 100 µM; GI50 (T-47D breast): > 100 µM; TGI (T-47D breast): > 100 µM; GI50 (DU-145 prostate): > 100 µM; TGI (DU-145 prostate): > 100 µM; TGI (A498 renal): > 100 µM; TGI (HCT-15 colon): > 100 µM; TGI (IGROV1 ovarian): > 100 µM; TGI (U251 CNS): > 100 µM; TGI (OVCAR-5 ovarian): > 100 µM; TGI (UO-31 renal): > 100 µM; TGI (RPMI-8226 leukemia): > 100 µM; TGI (OVCAR-3 ovarian): > 100 µM; GI50 (NCI/ADR-RES ovarian): > 100 µM; TGI (NCI/ADR-RES ovarian): > 100 µM; TGI (SR leukemia): > 100 µM; TGI (SK-OV-3 ovarian): > 100 µM; TGI (HOP-62 NSCLC): > 100 µM; TGI (ACHN renal): > 100 µM; TGI (SK-MEL-5 melanoma): > 100 µM; GI50 (MDA-MB-435): > 100 µM; TGI (MDA-MB-435): > 100 µM; TGI (NCI-H460 lung): > 100 µM; TGI (A549 NSCLC): > 100 µM; TGI (EKVX NSCLC): > 100 µM

Question: Which results are given for `O=C(Cc1ccc(F)cc1)NC1=C(Cl)C(=O)c2ccccc2C1=O`?
Answer: TGI (SNB-78 CNS): 34.7 µM; TGI (HT29 colon): 35.4 µM; TGI (HCC-2998 colon): 16 µM; TGI (LOX IMVI melanoma): 9.05 µM; TGI (DLD-1 colon): 4.24 µM; TGI (XF 498 CNS): 4.02 µM; TGI (SNB-19 CNS): > 100 µM; TGI (NCI-H23 lung): 5.94 µM; TGI (786-0 renal): 19.5 µM; TGI (KM20L2 colon): 34.8 µM; TGI (UACC-62 melanoma): 9.87 µM; TGI (LXFL 529 NSCLC): 10.5 µM; TGI (COLO 205 colon): 12.7 µM; TGI (SK-MEL-2 melanoma): 6.33 µM; TGI (M19-MEL melanoma): 14.7 µM; TGI (SK-MEL-28 melanoma): 11.6 µM; TGI (KM12 colon): 14.4 µM; TGI (SF-268 CNS): 15.1 µM; TGI (SNB-75 CNS): 18.3 µM; TGI (OVCAR-4 ovarian): 9.28 µM; TGI (HL-60(TB) leukemia): 390 nM; TGI (SN12C renal): 13.8 µM; TGI (M14 melanoma): 12.4 µM; TGI (CCRF-CEM leukemia): > 100 µM; TGI (DMS 114 small cell lung): 1800 nM; TGI (SF-539 CNS): 5.02 µM; TGI (RXF 393 renal): 4.11 µM; TGI (SF-295 CNS): 12 µM; TGI (OVCAR-8 ovarian): 4.05 µM; TGI (SW-620 colon): 5.76 µM; TGI (TK-10 renal): 14.5 µM; TGI (NCI-H522 lung): 1250 nM; TGI (HCT-116 colon): 11.9 µM; TGI (HOP-92 NSCLC): 3.68 µM; TGI (NCI-H226 lung): 12.7 µM; TGI (RXF-631 renal): > 50 µM; TGI (CAKI-1 renal): 19.8 µM; TGI (UACC-257 melanoma): 6.56 µM; TGI (DMS 273 small cell lung): 13.6 µM; TGI (HCT-15 colon): 7.43 µM; TGI (IGROV1 ovarian): 6.63 µM; TGI (U251 CNS): 11.5 µM; TGI (OVCAR-5 ovarian): 13.1 µM; TGI (UO-31 renal): 7.88 µM; TGI (RPMI-8226 leukemia): 4.14 µM; TGI (OVCAR-3 ovarian): 9.33 µM; TGI (SR leukemia): 3.34 µM; TGI (SK-OV-3 ovarian): 58.3 µM; TGI (HOP-62 NSCLC): 44.6 µM; TGI (ACHN renal): 3.4 µM; TGI (SK-MEL-5 melanoma): 11.3 µM; TGI (NCI-H460 lung): 13.8 µM; TGI (A549 NSCLC): 16.4 µM; TGI (MALME-3M melanoma): 7.89 µM; TGI (EKVX NSCLC): 16 µM
